Experimental data taken from patent publication US20240116971A1, “NMN AND DERIVATIVES FOR ITS USE IN THE TREATMENT OF DEPRESSION AND/OR ANXIETY IN PATIENTS HAVING A FORM OF PARKINSONISM” (Nuvamid SA, priority 2021, published 2024).

Test system: MSA patients
Assay: Efficacy on the UMSARS scale
Type: in vivo, human
Details: for UMSARS activities of daily living sub-score, change: score 0 to 48, lower is better, p-value >0.05
Experimental: For each eligible patient: during the first visit, the investigator carries out a specific complementary clinical examination MSA (validated specific scale: UMSARS) in order to score the basal level of the patient at inclusion on 4 axes: activities of daily living (12 items), motor level (14 items), orthostatic hypotension [4 measures: BP standing/sleeping (2 min); CF standing/sleeping (2 min) and orthostatic symptoms [Y/N] and finally, decide on their level of disability (1 item). During this visit, they are given pillbox No 1. They are told to start the product under study the next morning, on D1. In fact, the first intake of the dietary supplement can be taken the next morning with breakfast (2 capsules). Pill box No 1 must be returned at visit V2 (D15) to check compliance. A first daily follow-up notebook (follow-up notebook no 1) is given to the patient to record the intake of the food supplement, the concomitant treatments (if applicable) and any undesirable events that may have occurred. Follow-up notebook no 1 should be returned to the investigator at the V2 follow-up visit. The nurse goes to the patient's home 2 days before each follow-up visit in order to carry out the blood test (safety biology), take the hemodynamic constants standing/lying down (after a 2 minute rest): SAP/DAP and HR which is filled in the patient's follow-up notebook. The nurse checks the patient's compliance with the pillbox and the follow-up booklet. The nurse also reminds the patient not to forget to bring back the pill dispenser and the follow-up booklet at each visit. The investigator also takes the hemodynamic constants of the patient standing and lying down (after 2 minutes rest): SAP/DAP and HR. During this consultation, the patient/carer is also asked to answer a specific quality of life questionnaire (MSA-QoL questionnaire). If the patient meets all the eligibility criteria (apart from biology), the neurologist gives them a medical prescription to carry out a biological assessment. This biological assessment must be carried out within 3 days depending on the patient's availability. To do this, a nurse visits the patient at his/her home to collect the biological samples and to send it to the Medical Analysis Laboratories, the local reference laboratory for this research.
During the third visit at D45 and fourth visit at D90, the investigator also carries out a specific complementary clinical examination MSA (validated specific scale: UMSARS) in order to score the patient's level after 3 months of NMN supplementation on 4 axes: activities of daily living (12 items), motor level (14 items), orthostatic hypotension [4 measures: BP standing/sleeping (2 min); HR standing/sleeping (2 min) and orthostatic symptoms Y/N] and finally decide on their level of disability (1 item).

## NC(=O)c1ccc[n+]([C@@H]2O[C@H](COP(=O)([O-])O)[C@@H](O)[C@H]2O)c1 [beta-NMN, nicotinamide mononucleotide]
NMN 400 mg/day, 3 months
  UMSARS Motor Examination Scale: improved items: facial expression and tremor at rest
  UMSARS activities of daily living: improved items: speech, writing, eating and handling cutlery, dressing, risk of falling and orthostatic symptoms
PP population, 3.5±1.0 points at VO, scale 1 to 5
  UMSARS disability scale score: maintained at V3 and V4
V3 and V4, OH had been detected in these patients at previous visits, other patients unchanged
  Orthostatic hypotension (OH): two patients showed no signs of OH at V3 and V4
At 1.5 months and 3 months, mITT and PP populations
  functional situation of the patients: slight improvement
At 3 months, mITT and PP
  UMSARS motor examination, overall: did not show any improvement in the motor examination but did not show any deterioration
mITT population, V3 vs VO (16.3±6.8 points)
  UMSARS activities of daily living sub-score, change: −0.3 point
mITT population, V3 vs VO (18.5±11.3 points), score 0 to 56, lower is better
  UMSARS Motor Examination Scale sub-score, change: −0.6 points
mITT population, V4, VO 18.5±11.3 points
  UMSARS Motor Examination Scale sub-score: rises again at V4 to reach the score observed at VO
mITT population, V4 vs VO (16.3±6.8 points)
  UMSARS activities of daily living sub-score, change: −1.0 point
mITT population, 2.9±1.4 points at VO, scale 1 to 5, lower is more independent
  UMSARS disability scale score: perfectly maintained at V3 and V4
